Activity calls are given as the source filed them. No cut-off for these calls is given here.
Assays:
[1] = Cell cycle arrest in human Hep3B cells assessed as accumulation at S phase at 5 uM after 12 hrs using propidium iodide staining by flow cytometry (reference value: 12.2%); assay type: functional, cell-based; settings: Hep 3B2
[2] = Cell cycle arrest in human Hep3B cells assessed as accumulation at S phase at 10 uM after 12 hrs using propidium iodide staining by flow cytometry (reference value: 12.2%); assay type: functional, cell-based; settings: Hep 3B2
[3] = Cell cycle arrest in human Hep3B cells assessed as accumulation at G2/M phase at 1 uM after 12 hrs using propidium iodide staining by flow cytometry (reference value: 16.2 %); assay type: functional, cell-based; settings: Hep 3B2
[4] = Cell cycle arrest in human Hep3B cells assessed as accumulation at G2/M phase at 5 uM after 12 hrs using propidium iodide staining by flow cytometry (reference value: 16.2 %); assay type: functional, cell-based; settings: Hep 3B2
[5] = Cell cycle arrest in human Hep3B cells assessed as accumulation at G2/M phase at 10 uM after 12 hrs using propidium iodide staining by flow cytometry (reference value: 16.2 %); assay type: functional, cell-based; settings: Hep 3B2
HepG2 [6] = assay: Induction of apoptosis in human HepG2 cells assessed as cell shrinking at 5 uM after 12 hrs by light microscopic method; assay type: functional, cell-based
Hep 3B2 [7] = assay: Induction of apoptosis in human Hep3B cells assessed as cell shrinking at 5 uM after 12 hrs by light microscopic method; assay type: functional, cell-based
HepG2 [8] = assay: Induction of apoptosis in human HepG2 cells assessed as increased expression of Bax protein at 1 to 10 uM after 12 hrs by immunoblot; assay type: functional, cell-based
HepG2 [9] = assay: Induction of apoptosis in human HepG2 cells assessed as Bcl-2 level at 1 to 10 uM after 12 hrs by chemiluminescence blotting method; assay type: functional, cell-based
HepG2 [10] = assay: Induction of apoptosis in human HepG2 cells assessed as increase in caspase-8 level at 1 to 10 uM after 12 hrs by chemiluminescence blotting method; assay type: functional, cell-based
HepG2 [11] = assay: Induction of apoptosis in human HepG2 cells assessed as increase in expression of p53 protein at 1 to 10 uM after 12 hrs by chemiluminescence blotting method; assay type: functional, cell-based
Hep 3B2 [12] = assay: Growth inhibition of human Hep3B cells assessed as assessed as suppression of cell viability at 5 uM after 12 hrs by XTT assay; assay type: functional, cell-based
Hep 3B2 [13] = assay: Growth inhibition of human Hep3B cells at 0.1 to 5 uM by XTT assay; assay type: functional, cell-based; settings: TDE = time-dependent effect
HepG2 [14] = assay: Growth inhibition of human HepG2 cells assessed as suppression of cell viability at 5 uM after 12 hrs by XTT assay; assay type: functional, cell-based
HepG2 [15] = assay: Growth inhibition of human HepG2 cells at 0.1 to 5 uM by XTT assay; assay type: functional, cell-based; settings: TDE = time-dependent effect
HepG2 [16] = assay: Growth inhibition of human HepG2 cells after 12 to 72 hrs by XTT assay; assay type: functional, cell-based
Hep 3B2 [17] = assay: Growth inhibition of human Hep3B cells after 12 to 72 hrs by XTT assay; assay type: functional, cell-based
MCF7 = assay: Growth inhibition of human MCF7 cells after 72 hrs by XTT assay; assay type: functional; settings: MCF7, 72 h
MDA-MB-231 = assay: Growth inhibition of human MDA-MB-231 cells after 72 hrs by XTT assay; assay type: functional; settings: MDA-MB-231, 72 h
A549 = assay: Growth inhibition of human A549 cells after 72 hrs by XTT assay; assay type: functional; settings: A549, 72 h
[18] = Growth inhibition of human H1299 cells after 72 hrs by XTT assay; assay type: functional; settings: NCI-H1299, 72 h
HepG2 [19] = assay: Growth inhibition of human HepG2 cells after 72 hrs by XTT assay; assay type: functional; settings: HepG2, 72 h
[20] = Growth inhibition of human Hep3B cells after 72 hrs by XTT assay; assay type: functional, Hep 3B2
HepG2 [21] = assay: Cell cycle arrest in human HepG2 cells assessed as accumulation at sub-G1 phase at 1 uM after 12 hrs using propidium iodide staining by flow cytometry (reference value: 3.6%); assay type: functional
HepG2 [22] = assay: Cell cycle arrest in human HepG2 cells assessed as accumulation at sub-G1 phase at 5 uM after 12 hrs using propidium iodide staining by flow cytometry (reference value: 3.6%); assay type: functional
HepG2 [23] = assay: Cell cycle arrest in human HepG2 cells assessed as accumulation at sub-G1 phase at 10 uM after 12 hrs using propidium iodide staining by flow cytometry (reference value: 3.6%); assay type: functional
HepG2 [24] = assay: Cell cycle arrest in human HepG2 cells assessed as accumulation at G1 phase at 1 uM after 12 hrs using propidium iodide staining by flow cytometry (reference value: 67.5%); assay type: functional
HepG2 [25] = assay: Cell cycle arrest in human HepG2 cells assessed as accumulation at G1 phase at 5 uM after 12 hrs using propidium iodide staining by flow cytometry (reference value: 67.5%); assay type: functional
HepG2 [26] = assay: Cell cycle arrest in human HepG2 cells assessed as accumulation at G1 phase at 10 uM after 12 hrs using propidium iodide staining by flow cytometry (reference value: 67.5%); assay type: functional
HepG2 [27] = assay: Cell cycle arrest in human HepG2 cells assessed as accumulation at S phase at 1 uM after 12 hrs using propidium iodide staining by flow cytometry (reference value: 13.8%); assay type: functional
HepG2 [28] = assay: Cell cycle arrest in human HepG2 cells assessed as accumulation at S phase at 5 uM after 12 hrs using propidium iodide staining by flow cytometry (reference value: 13.8%); assay type: functional
HepG2 [29] = assay: Cell cycle arrest in human HepG2 cells assessed as accumulation at S phase at 10 uM after 12 hrs using propidium iodide staining by flow cytometry (reference value: 13.8%); assay type: functional
HepG2 [30] = assay: Cell cycle arrest in human HepG2 cells assessed as accumulation at G2/M phase at 1 uM after 12 hrs using propidium iodide staining by flow cytometry (reference value: 18.7 %); assay type: functional
HepG2 [31] = assay: Cell cycle arrest in human HepG2 cells assessed as accumulation at G2/M phase at 5 uM after 12 hrs using propidium iodide staining by flow cytometry (reference value: 18.7 %); assay type: functional
HepG2 [32] = assay: Cell cycle arrest in human HepG2 cells assessed as accumulation at G2/M phase at 10 uM after 12 hrs using propidium iodide staining by flow cytometry (reference value: 18.7 %); assay type: functional
[33] = Cell cycle arrest in human Hep3B cells assessed as accumulation at sub-G1 phase at 1 uM after 12 hrs using propidium iodide staining by flow cytometry (reference value: 2.1%); assay type: functional, cell-based; settings: Hep 3B2
[34] = Cell cycle arrest in human Hep3B cells assessed as accumulation at sub-G1 phase at 5 uM after 12 hrs using propidium iodide staining by flow cytometry (reference value: 2.1%); assay type: functional, cell-based; settings: Hep 3B2
[35] = Cell cycle arrest in human Hep3B cells assessed as accumulation at sub-G1 phase at 10 uM after 12 hrs using propidium iodide staining by flow cytometry (reference value: 2.1%); assay type: functional, cell-based; settings: Hep 3B2
[36] = Cell cycle arrest in human Hep3B cells assessed as accumulation at G1 phase at 1 uM after 12 hrs using propidium iodide staining by flow cytometry (reference value: 71.6%); assay type: functional, cell-based; settings: Hep 3B2
[37] = Cell cycle arrest in human Hep3B cells assessed as accumulation at G1 phase at 5 uM after 12 hrs using propidium iodide staining by flow cytometry (reference value: 71.6%); assay type: functional, cell-based; settings: Hep 3B2
[38] = Cell cycle arrest in human Hep3B cells assessed as accumulation at G1 phase at 10 uM after 12 hrs using propidium iodide staining by flow cytometry (reference value: 71.6%); assay type: functional, cell-based; settings: Hep 3B2
[39] = Cell cycle arrest in human Hep3B cells assessed as accumulation at S phase at 1 uM after 12 hrs using propidium iodide staining by flow cytometry (reference value: 12.2%); assay type: functional, cell-based; settings: Hep 3B2

## CN(C)CCCO/N=C1\c2cc(O)ccc2-c2c(-c3ccc(OCCCN(C)C)cc3)nc3ccc(F)cc3c21
[1]
  Activity: 17.4%
[2]
  Activity: 15.2%
[3]
  Activity: 30.7%
[4]
  Activity: 18.1%
[5]
  Activity: 14.1%
HepG2 [6]
  Activity: Active
Hep 3B2 [7]
  Activity: Active
HepG2 [8]
  Activity: Active
HepG2 [9]
  Activity: Active
HepG2 [10]
  Activity: Active
HepG2 [11]
  Activity: Active
Hep 3B2 [12]
  growth inhibition (GI): Active
Hep 3B2 [13]
  growth inhibition (GI): tde
HepG2 [14]
  growth inhibition (GI): Active
HepG2 [15]
  growth inhibition (GI): tde
HepG2 [16]
  growth inhibition (GI): Dose-dependent effect
Hep 3B2 [17]
  growth inhibition (GI): Dose-dependent effect
MCF7
  GI50: 6460 nM
MDA-MB-231
  GI50: 650 nM
A549
  GI50: 550 nM
[18]
  GI50: 670 nM
HepG2 [19]
  GI50: 640 nM
[20]
  GI50: 390 nM
HepG2 [21]
  Activity: 4.9%
HepG2 [22]
  Activity: 19.8%
HepG2 [23]
  Activity: 29.1%
HepG2 [24]
  Activity: 56.5%
HepG2 [25]
  Activity: 38.1%
HepG2 [26]
  Activity: 31.3%
HepG2 [27]
  Activity: 12.4%
HepG2 [28]
  Activity: 18.5%
HepG2 [29]
  Activity: 21.7%
HepG2 [30]
  Activity: 31.1%
HepG2 [31]
  Activity: 23.6%
HepG2 [32]
  Activity: 17.9%
[33]
  Activity: 5.3%
[34]
  Activity: 21.8%
[35]
  Activity: 33.5%
[36]
  Activity: 58.9%
[37]
  Activity: 42.7%
[38]
  Activity: 37.2%
[39]
  Activity: 10.4%
